What was measured:
[1] = different animal models; wording wraps from r29 ("anti-") to r30; cited from earlier work
[2] = system: P-selectin-, E-selectin-, and L-selectin-dependent adhesion; conditions: in humans in vitro; cited from earlier work
[3] = system: Human MDA-BM-231 3D spheroids; assay: Breast cancer 3D spheroid invasion; type: cell-based; conditions: co-cultured with brain microenvironment cells; FIG. 7B
A549 spheroids = assay: Lung cancer spheroid growth and invasion; type: cell-based, human
[4] = patients, administered systemically; cited from earlier work

O=C(O)Cc1cccc(-c2cc(CCCCCCc3ccc(O[C@H]4O[C@H](CO)[C@@H](O)[C@H](O)[C@@H]4O)c(-c4cccc(CC(=O)O)c4)c3)ccc2O[C@H]2O[C@H](CO)[C@@H](O)[C@H](O)[C@@H]2O)c1 [Bimosiamose]
anti-inflammatory effects [1]: inflammatory effects in different animal models.
inhibition of selectin-dependent adhesion [2]: been shown to inhibit P-selectin-, E-selectin-, and L-selectin-

COc1ccc(C2CC(c3c(O)cc(C)oc3=O)=NCCS2)c(OC)c1 (stereo not shown) [SELPi, 3-[7-(2,4-Dimethoxyphenyl)-2,3,6,7-tetrahydro-1,4-thiazepin-5-yl]-4-hydroxy-6-methyl-2H-pyran-2-one]
spheroid invasion [3]: reduced invasion
spheroid growth and invasion in Matrigel (A549 spheroids; FIG. 8D): reduced A549 spheroid growth and invasion in Matrigel, in a dose-dependent manner
spheroid growth (A549 spheroids; in the presence of human microglia, FIG. 8C): inhibits A549 spheroid growth

inclacumab: monoclonal antibody directed towards P-selectin
tolerability [4]: well tolerated

B1: crizanlizumab: Humanized monoclonal anti-P-selectin antibody. (antibody, chains of the INN, looked up, V domains shown)
VH: QVQLVQSGAEVKKPGASVKVSCKVSGYTFTSYDINWVRQAPGKGLEWMGWIYPGDGSIKYNEKFKGRVTMTVDKSTDTAYMELSSLRSEDTAVYYCARRGEYGNYEGAMDYWGQGTLVTVSS
VL: DIQMTQSPSSLSASVGDRVTITCKASQSVDYDGHSYMNWYQQKPGKAPKLLIYAASNLESGVPSRFSGSGSGTDFTLTISSLQPEDFATYYCQQSDENPLTFGGGTKVEIK
tolerability [4]: well tolerated

Source: patent publication US20250019445A1, “P-SELECTIN INHIBITION FOR TREATMENT OF CANCER” (Ramot at Tel-Aviv University Ltd., priority 2022, published 2025)
